Measurements as given in ChEMBL document CHEMBL1130502, “Lipopeptide antifungal agents: Amine conjugates of the semi-synthetic pneumocandins L-731,373 and L-733,560” (Bioorg Med Chem Lett, 1997).
pIC50: −log10 of the molar value. ≈ marks a conversion by molar mass, not a printed value. *1 amine or outer side, *2 acyl side, *3 side chain or, on linkers, in order; H or OH if unused. Where a SMILES comes first, the peptide text is derived from it. Bridges are numbered along the chain shown (N, C = ends). [ ]: non-standard residue; d: D form. The star is where a group is joined. ξ: configuration not given here. ξOrn(4R-OH,5R-OH) = O=C(C(C[C@@H](O)[C@@H](O)N[*:3])N[*:1])[*:2]; hTyr(3S-OH,4S-OH) = N[C@H](C(=O)O)[C@H](O)[C@@H](O)c1ccc(O)cc1; Orn(3R-OH) = NCC[C@@H](O)[C@H](N)C(=O)O; X2 = O=C(C1CN([*:1])C[C@@H]1O)[*:2]; ξPro(4R-OH) = O=C(O)C1C[C@@H](O)CN1; X1 = CCC(C)CC(C)CCCCCCCCC(=O)*

Legend:
[1] = species: Mus musculus; assay: […] anti-candida activity expressed as ED99.9 in a mouse model of disseminated candidiasis (TOKA); format: functional
[2] = Acute toxicity in mice after intravenous administration; settings: mouse, in vivo
[3] = species: Mus musculus; assay: Percentage of mice with complete eradication of candida in kidneys; format: functional, Kidney
[4] = system: Candida albicans; assay: Tested for minimum fungicidal concentration (MFC) against Candida albicans (MY 1055); format: functional
[5] = target: 1,3-beta-glucan synthase (Candida glabrata, UniProt F5BCZ9); assay: Inhibition of 1,3-beta-glucan synthase; parameters: species or system Candida glabrata CBS 138
1,3-beta-glucan synthase, sequence (F5BCZ9 whole entry): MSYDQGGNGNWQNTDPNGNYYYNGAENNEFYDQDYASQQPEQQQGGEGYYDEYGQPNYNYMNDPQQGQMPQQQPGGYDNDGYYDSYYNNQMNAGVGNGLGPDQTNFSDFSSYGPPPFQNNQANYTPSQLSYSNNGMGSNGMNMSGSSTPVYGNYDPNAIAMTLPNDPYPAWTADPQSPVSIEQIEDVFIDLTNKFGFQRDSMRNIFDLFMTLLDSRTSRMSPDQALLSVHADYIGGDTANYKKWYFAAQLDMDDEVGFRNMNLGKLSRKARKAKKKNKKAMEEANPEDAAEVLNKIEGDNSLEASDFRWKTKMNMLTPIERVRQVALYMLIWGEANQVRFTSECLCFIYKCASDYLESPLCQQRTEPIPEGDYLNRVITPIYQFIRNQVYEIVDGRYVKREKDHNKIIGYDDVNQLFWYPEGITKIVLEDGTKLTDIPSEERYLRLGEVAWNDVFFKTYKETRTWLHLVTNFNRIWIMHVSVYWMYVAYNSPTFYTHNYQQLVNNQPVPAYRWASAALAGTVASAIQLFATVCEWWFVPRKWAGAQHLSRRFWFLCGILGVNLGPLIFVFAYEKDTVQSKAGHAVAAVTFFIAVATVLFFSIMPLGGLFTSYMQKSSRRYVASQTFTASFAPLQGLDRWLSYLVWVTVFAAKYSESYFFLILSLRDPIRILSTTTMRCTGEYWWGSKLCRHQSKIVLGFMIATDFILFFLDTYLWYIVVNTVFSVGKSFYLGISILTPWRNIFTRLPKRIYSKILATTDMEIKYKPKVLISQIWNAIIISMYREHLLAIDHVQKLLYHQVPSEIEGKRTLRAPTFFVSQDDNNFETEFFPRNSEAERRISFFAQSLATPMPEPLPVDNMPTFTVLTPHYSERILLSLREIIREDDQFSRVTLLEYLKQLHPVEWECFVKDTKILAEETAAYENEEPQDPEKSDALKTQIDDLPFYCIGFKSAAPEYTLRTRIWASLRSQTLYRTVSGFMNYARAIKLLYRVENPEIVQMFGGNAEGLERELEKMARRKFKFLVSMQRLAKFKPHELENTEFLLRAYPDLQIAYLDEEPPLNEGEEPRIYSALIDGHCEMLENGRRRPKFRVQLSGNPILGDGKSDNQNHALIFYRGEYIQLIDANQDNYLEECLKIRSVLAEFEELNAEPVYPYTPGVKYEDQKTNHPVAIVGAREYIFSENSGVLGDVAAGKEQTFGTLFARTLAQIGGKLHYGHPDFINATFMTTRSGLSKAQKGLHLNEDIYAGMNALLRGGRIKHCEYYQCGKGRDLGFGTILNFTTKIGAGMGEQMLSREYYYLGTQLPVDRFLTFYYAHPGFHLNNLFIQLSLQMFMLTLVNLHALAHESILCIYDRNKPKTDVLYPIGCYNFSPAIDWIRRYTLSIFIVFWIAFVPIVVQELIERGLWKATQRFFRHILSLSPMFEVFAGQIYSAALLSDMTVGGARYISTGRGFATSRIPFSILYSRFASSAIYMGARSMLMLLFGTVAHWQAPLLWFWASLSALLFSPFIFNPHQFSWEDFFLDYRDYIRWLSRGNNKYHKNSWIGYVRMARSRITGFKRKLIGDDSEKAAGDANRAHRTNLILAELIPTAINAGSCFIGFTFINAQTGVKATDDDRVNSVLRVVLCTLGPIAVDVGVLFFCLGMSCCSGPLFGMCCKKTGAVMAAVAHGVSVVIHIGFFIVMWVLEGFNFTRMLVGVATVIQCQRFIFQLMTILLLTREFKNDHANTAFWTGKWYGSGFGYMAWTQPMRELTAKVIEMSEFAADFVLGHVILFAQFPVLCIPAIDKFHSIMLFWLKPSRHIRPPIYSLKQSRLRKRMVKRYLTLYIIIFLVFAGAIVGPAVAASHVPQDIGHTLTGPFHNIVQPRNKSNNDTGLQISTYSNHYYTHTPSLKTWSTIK

[6] = system: Mus musculus; assay: In vivo effective intraperitoneal dose to achieve least 50% survival in a mouse model of disseminated aspergillosis; format: functional; settings: ip

Structure (SMILES) | ED99.9 [1] | Dose [2] | Sterilized [3] | MFC [4] | pIC50 [5] | ED50 [6]
CCC(C)CC(C)CCCCCCCCC(=O)NC1C[C@@H](O)[C@@H](O)NC(=O)C2CN(C[C@@H]2O)C(=O)[C@H]([C@H](O)CCNC(=O)CCCCCN)NC(=O)[C@H]([C@H](O)[C@@H](O)c2ccc(O)cc2)NC(=O)C2C[C@@H](O)CN2C(=O)[C@H]([C@@H](C)O)NC1=O (some centres not stated) | >1.5 mg/kg | 250 mg/kg | 0% | 0.5 µg/mL (≈ 0.429 µM) | 7.05 | 
CCC(C)CC(C)CCCCCCCCC(=O)NC1C[C@@H](O)[C@@H](O)NC(=O)C2CN(C[C@@H]2O)C(=O)[C@H]([C@H](O)CCNC(=O)CCCN)NC(=O)[C@H]([C@H](O)[C@@H](O)c2ccc(O)cc2)NC(=O)C2C[C@@H](O)CN2C(=O)[C@H]([C@@H](C)O)NC1=O (some centres not stated) | 1.5 mg/kg | > 100 mg/kg | 40% | < 0.06 µg/mL | 7.30 | 
CCC(C)CC(C)CCCCCCCCC(=O)NC1C[C@@H](O)[C@@H](O)NC(=O)C2CN(C[C@@H]2O)C(=O)[C@H]([C@H](O)CCNC(=O)CN)NC(=O)[C@H]([C@H](O)[C@@H](O)c2ccc(O)cc2)NC(=O)C2C[C@@H](O)CN2C(=O)[C@H]([C@@H](C)O)NC1=O (some centres not stated) | 0.375 mg/kg | 250 mg/kg | 20% | 0.5 µg/mL (≈ 0.451 µM) | 7.82 | 
CCC(C)CC(C)CCCCCCCCC(=O)NC1C[C@@H](O)[C@@H](O)NC(=O)C2CN(C[C@@H]2O)C(=O)[C@H]([C@H](O)CCNC(C)=O)NC(=O)[C@H]([C@H](O)[C@@H](O)c2ccc(O)cc2)NC(=O)C2C[C@@H](O)CN2C(=O)[C@H]([C@@H](C)O)NC1=O (some centres not stated) | 12 mg/kg | > 250 mg/kg | 0% | 2 µg/mL (≈ 1.83 µM) | 6.52 | 
CCC(C)CC(C)CCCCCCCCC(=O)NC1C[C@@H](O)[C@@H](OCCN)NC(=O)C2CN(C[C@@H]2O)C(=O)[C@H]([C@H](O)CCNC(=O)[C@@H](N)CCN)NC(=O)[C@H]([C@H](O)[C@@H](O)c2ccc(O)cc2)NC(=O)C2C[C@@H](O)CN2C(=O)[C@H]([C@@H](C)O)NC1=O (some centres not stated) | 0.09 mg/kg | 100 mg/kg | 0% | 0.5 µg/mL (≈ 0.419 µM) | 8.22 | 
CCC(C)CC(C)CCCCCCCCC(=O)NC1C[C@@H](O)[C@@H](O)NC(=O)C2CN(C[C@@H]2O)C(=O)[C@H]([C@H](O)CCNC(=O)CCN)NC(=O)[C@H]([C@H](O)[C@@H](O)c2ccc(O)cc2)NC(=O)C2C[C@@H](O)CN2C(=O)[C@H]([C@@H](C)O)NC1=O (some centres not stated) | 1.5 mg/kg | 250 mg/kg | 100% | 0.125 µg/mL (≈ 0.111 µM) | 7.60 | 
CCC(C)CC(C)CCCCCCCCC(=O)NC1C[C@@H](O)[C@@H](OCCN)NC(=O)C2CN(C[C@@H]2O)C(=O)[C@H]([C@H](O)CCNC(=O)[C@@H](N)CN)NC(=O)[C@H]([C@H](O)[C@@H](O)c2ccc(O)cc2)NC(=O)C2C[C@@H](O)CN2C(=O)[C@H]([C@@H](C)O)NC1=O (some centres not stated) | 0.375 mg/kg | > 100 mg/kg | 100% | 1 µg/mL (≈ 0.847 µM) | 8.40 | 0.07 mg/kg
CCC(C)CC(C)CCCCCCCCC(=O)NC1C[C@@H](O)[C@@H](O)NC(=O)C2CN(C[C@@H]2O)C(=O)[C@H]([C@H](O)CCNC(=O)[C@@H](N)CCCN)NC(=O)[C@H]([C@H](O)[C@@H](O)c2ccc(O)cc2)NC(=O)C2C[C@@H](O)CN2C(=O)[C@H]([C@@H](C)O)NC1=O (some centres not stated) | 0.375 mg/kg | > 200 mg/kg | 20% | < 0.06 µg/mL | 8.52 | 
CCC(C)CC(C)CCCCCCCCC(=O)NC1C[C@@H](O)[C@@H](O)NC(=O)C2CN(C[C@@H]2O)C(=O)[C@H]([C@H](O)CCN)NC(=O)[C@H]([C@H](O)[C@@H](O)c2ccc(O)cc2)NC(=O)C2C[C@@H](O)CN2C(=O)[C@H]([C@@H](C)O)NC1=O (stereo partly drawn) (X1-[ξOrn(4R-OH,5R-OH)]T[ξPro(4R-OH)][hTyr(3S-OH,4S-OH)][Orn(3R-OH)][X2]; lactam 1-C) | 0.375 mg/kg | 100 mg/kg | 70% | < 0.06 µg/mL | 8.00 | > 20 mg/kg
